Measured values reported in ChEMBL document CHEMBL4622888, “Modified Fusicoccane-Type Diterpenoids from Alternaria brassicicola” (J Nat Prod, 2020).

Legend:
RAW264.7 = test: Antiinflammatory activity in mouse RAW264.7 cells assessed as inhibition of LPS-induced NO production measured after 18 hrs by Griess assay; type: functional, cell-based; conditions: RAW264.7, 18 h
Hep 3B2 = test: Cytotoxicity against human Hep3B cells after 48 hrs by MTT assay; type: functional, cell-based
MDA-MB-231 = test: Cytotoxicity against human MDA-MB-231 cells after 48 hrs by MTT assay; type: functional, cell-based; conditions: MDA-MB-231, 48 h
HT-29 = test: Cytotoxicity against human HT-29 cells after 48 hrs by MTT assay; type: functional, cell-based; conditions: HT-29, 48 h
HeLa = test: Cytotoxicity against human HeLa cells after 48 hrs by MTT assay; type: functional, cell-based
OVCAR = test: Cytotoxicity against human OVCAR cells after 48 hrs by MTT assay; type: functional, cell-based
L02 = test: Cytotoxicity against human LO2 cells after 48 hrs by MTT assay; type: cell-based; conditions: l02, 48 h

Row | SMILES | IC50 (RAW264.7) [µM] | IC50 (Hep 3B2) [µM] | IC50 (MDA-MB-231) [µM] | IC50 (HT-29) [µM] | IC50 (HeLa) [µM] | IC50 (OVCAR) [µM] | Activity (L02)
1 | COCC1=C2[C@@H](CC1)[C@@H](C)[C@@H](O)CC1=C(C(C)C)CC[C@]1(C)[C@H]2O | 24.3 | 25 to 38.2 | 25 to 38.2 | 25 to 38.2 | 25 to 38.2 | 25 to 38.2 | Non-Toxic
2 | CC(C)C1=C2C[C@@H]3O[C@@H]([C@H]4C(=O)CC[C@H]4[C@H]3C)[C@@]2(C)[C@@H](O)C1 | > 40 | 25 to 38.2 | 25 to 38.2 | 25 to 38.2 | 25 to 38.2 | 25 to 38.2 | Non-Toxic
3 | COC[C@@]1(O)CC[C@H]2[C@@H](C)[C@@H](O)CC3=C(C(C)C)CC[C@]3(C)[C@H]3O[C@@]231 | > 40 | 25 to 38.2 | 25 to 38.2 | 25 to 38.2 | 25 to 38.2 | 25 to 38.2 | Non-Toxic

The next lines start with results.

Row | IC50 (RAW264.7) [µM] | SMILES | IC50 (Hep 3B2) [µM] | IC50 (MDA-MB-231) [µM] | IC50 (HT-29) [µM] | IC50 (HeLa) [µM] | IC50 (OVCAR) [µM] | Activity (L02)
4 | > 40 | COCC1=C2C[C@@]3(C)C(=O)C=C(C(C)C)[C@]34C[C@H](O)[C@H](C)[C@@]2(CC1)O4 | – | – | – | – | – | –
5 | > 40 | CC(C)C1=C2C[C@H](O)[C@H](C)C3=C(C(=O)CC3)[C@H](O)[C@@]2(C)CC1 | – | – | – | – | – | –
6 | > 40 | CC(C)C1=C2C[C@H](O)[C@H](C)[C@@H]3CCC(=O)/C3=C/[C@@]2(C)[C@@H](O)C1 | 25 to 38.2 | 25 to 38.2 | 25 to 38.2 | 25 to 38.2 | 25 to 38.2 | Non-Toxic
7 | > 40 | COCC1=C2[C@@H](CC1)[C@@H](C)[C@@H](O)CC1=C(C(C)C)C(=O)C[C@]1(C)[C@H]2O | – | – | – | – | – | –
